From patent US20210299103A1, “COMPOSITION FOR PREVENTING OR TREATING CANCER, COMPRISING SULFONAMIDE DERIVATIVE AS ACTIVE INGREDIENT” (EXOSTEMTECH CO., LTD., priority 2018, published 2021)
≈ marks a conversion by molar mass, not a printed value. Entries after “also recorded” stand apart in the source; their conditions may differ. Where two headings read alike, the source gives them in different places.

Experiments:
MDA-MB231 cells [1] = assay: Cancer cell migration assay, 8 μm insert, crystal violet staining; assay type: cell-based; settings: 100, 200, 400 or 800 μM, 5 hours, FIG. 5
[2] = system: Escherichia coli (ATCC 25922); assay: Minimum inhibitory concentration (MIC) assay on Mueller-Hinton agar, CLSI guidelines; assay type: cell-based; settings: for antibiotic susceptibility / antibiotic effect (in words): E. coli; for MIC: E.coli (ATCC 25922), Mueller-Hinton agar
Description: (§1) Staphylococcus aureus (ATCC 29213) and Escherichia coli (ATCC 25922) were used.

[3] = system: Staphylococcus aureus (ATCC 29213); assay: as above; assay type: cell-based; settings: for antibiotic susceptibility / antibiotic effect (in words): S. aureus; for MIC: S.aureus (ATCC 29213), Mueller-Hinton agar
Description: as §1

[4] = system: MDA-MB231 breast cancer cells; assay: Exosome secretion inhibition, exosomes counted with Nano-sight LM10; assay type: cell-based; settings: 100 μM, serum-free medium, 24 hours, FIG. 4
Method: MDA-MB231 breast cancer cells were cultured on a 150-mm culture plate. 24 hours later, after removing the medium and washing with PBS, the cells were treated with each compound at 100 μM together with a serum-free medium and cultured for 24 hours. After discarding the medium and centrifuging at 300×g for 3 minutes, 2,500×g for 15 minutes […] 10,000×g for 30 minutes, the supernatant was transferred to a fresh tube.
After filtering through a 200-nm syringe filter, exosome pellets were obtained by centrifuging at 120,000×g for 90 minutes. After redispersing the exosome pellets using PBS, the number of exosomes secreted by the cells was counted using Nano-sight LM10 (Malvern).

MDA-MB231 cells [5] = settings: 100, 200, 400 or 800 μM, cultured 24 hours, FIG. 3
Method: After seeding MDA-MB231 cells into a 24-well plate with 1×10^4 cells/well, the cells were stabilized by culturing for 24 hours.
After the culturing, the cells were incubated for 4 hours with an MTT tetrazolium reagent. Then, cell proliferation was investigated by measuring the absorbance of reduced MTT formazan (3-(4,5-dimethylthiazol-2-yl)-2,5-diphenyl-tetrazolium bromide) at 595 nm. Docetaxel (10 μM), which is currently used as an anticancer agent, was used as a control group.

SMILES | inhibition of migration of the cancer cells (MDA-MB231 cells [1]) | antibiotic susceptibility / antibiotic effect (in words) [2] | MIC [2] [µg/mL] | antibiotic susceptibility / antibiotic effect (in words) [3] | MIC [3] [µg/mL] | inhibition of secretion of exosomes [4] | MIC ([2]; Escherichia coli, ATCC25922, read-out: MIC) [µg/mL] | MIC ([3]; Staphylococcus aureus, ATCC29213, read-out: MIC) [µg/mL] | cytotoxicity (MTT, absorbance at 595 nm) (MDA-MB231 cells [5])
CC(=O)Nc1ccc(S(=O)(=O)Nc2onc(C)c2C)cc1 [SFX-N4AS, sulfisoxazole-N^4-acetyl] | inhibited in a concentration-dependent manner | no antibiotic susceptibility at all; also recorded: completely disappeared | >512 | no antibiotic susceptibility at all; also recorded: completely disappeared | >512 | strongly inhibit the secretion of exosomes | – | – | –
CC(=O)N(c1onc(C)c1C)S(=O)(=O)c1ccc(N)cc1 [SFX-N1AS, sulfisoxazole-N^1-acetyl] | inhibited in a concentration-dependent manner | decreased antibiotic susceptibility; also recorded: reduced significantly | 128 (≈ 414 µM) | decreased antibiotic susceptibility; also recorded: reduced significantly | 512 (≈ 1660 µM) | strongly inhibit the secretion of exosomes | – | – | –
Cc1noc(NS(=O)(=O)c2ccc(N)cc2)c1C [SFX-WT, sulfisoxazole, reference compound] | inhibited in a concentration-dependent manner | strong antibiotic susceptibility | – | strong antibiotic susceptibility | – | – | 16 (≈ 59.9 µM) | 32 (≈ 120 µM) | –
CC(=O)Nc1ccc(S(=O)(=O)N(C(C)=O)c2onc(C)c2C)cc1 [SFX-DAS, sulfisoxazole-N^1&N^4-dual acetyl] | inhibited in a concentration-dependent manner | no antibiotic susceptibility at all; also recorded: completely disappeared | >512 | no antibiotic susceptibility at all; also recorded: completely disappeared | >512 | strongly inhibit the secretion of exosomes | – | – | exhibit cytotoxicity at 100 μM or higher
